Laboratory results taken from US12077503B2, “Substituted cyclic amides and their use as herbicides” (FMC CORPORATION, priority 2015, dated 2024).

Tests used:
Assay type in all cases: in vivo
[1] = tested on: pigweed (Amaranthus retroflexus); experiment: Test A preemergence; conditions: Amaranthus retroflexus, pre-emergence, 240 h
[2] = tested on: Galium (catchweed bedstraw, Galium aparine); experiment: Test A postemergence; conditions: Galium, post-emergence, 240 h, postemergence, approx. 10 d
Procedure, shortened: (§1)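 Treatment is preemergence as a directed soil spray after planting, or postemergence at the one- to two-leaf stage, with test chemical in a non-phytotoxic solvent mixture plus surfactant. Plants stay in the greenhouse about 10 d before visual injury scoring on a 0 to 100 scale versus untreated controls.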

Kochia (Kochia scoparia) = experiment: Test A postemergence; conditions: Bassia scoparia, post-emergence, 240 h, postemergence, approx. 10 d
Procedure, shortened: as §1

[3] = tested on: barnyardgrass (Echinochloa crus-galli); experiment: Test A postemergence; conditions: Echinochloa crus-galli, post-emergence, 240 h, read-out: Plant response rating, Barnyardgrass
Procedure, shortened: as §1

[4] = tested on: blackgrass (Alopecurus myosuroides); experiment: Test A postemergence; conditions: Alopecurus myosuroides, post-emergence, 240 h, read-out: Plant response rating, Blackgrass
Procedure, shortened: as §1

corn (Zea mays) = experiment: Test A postemergence; conditions: Zea mays, post-emergence, 240 h
Procedure, shortened: as §1

[5] = tested on: giant foxtail (Setaria faberii); experiment: Test A postemergence; conditions: Setaria faberi, post-emergence, 240 h, postemergence, approx. 10 d
Procedure, shortened: as §1

[6] = tested on: pigweed (Amaranthus retroflexus); experiment: Test A postemergence; conditions: Amaranthus retroflexus, post-emergence, 240 h, postemergence, approx. 10 d
Procedure, shortened: as §1

[7] = tested on: ragweed (common ragweed, Ambrosia elatior); experiment: Test A postemergence; conditions: Ambrosia artemisiifolia, post-emergence, 240 h, postemergence, approx. 10 d
Procedure, shortened: as §1

[8] = tested on: ryegrass, Italian (Italian ryegrass, Lolium multiflorum); experiment: Test A postemergence; conditions: Lolium multiflorum, post-emergence, 240 h, postemergence, approx. 10 d
Procedure, shortened: as §1

[9] = tested on: wheat (Triticum aestivum); experiment: Test A postemergence; conditions: Triticum aestivum, post-emergence, 240 h, postemergence, approx. 10 d
Procedure, shortened: as §1

[10] = tested on: barnyardgrass (Echinochloa crus-galli); experiment: Test B flooded paddy test; conditions: Echinochloa crus-galli, 250 g ai/ha, Flood; 0 to 100 scale where 0 is no effect and 100 is complete control; read-out: Barnyardgrass plant response rating
Procedure, shortened: (§2)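 Compound goes directly into floodwater once pots are flooded 3 cm above soil, targeting plants at two leaves; the water depth is then held for the test duration. Plants sit 13–15 d in a greenhouse and are rated visually, 100 denoting complete control.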

[11] = tested on: ducksalad (Heteranthera limosa); experiment: Test B flooded paddy test; conditions: Heteranthera limosa, 250 g ai/ha, Flood; 0 to 100 scale where 0 is no effect and 100 is complete control; read-out: Ducksalad plant response rating
Procedure, shortened: as §2

rice (Oryra sativa) = experiment: Test B flooded paddy test; conditions: Oryza sativa, 250 g ai/ha, Flood; 0 to 100 scale where 0 is no effect and 100 is complete control; read-out: Rice plant response rating
Procedure, shortened: as §2

[12] = tested on: sedge, umbrella (small-flower umbrella sedge, Cyperus difformis); experiment: Test B flooded paddy test; conditions: Cyperus difformis, 250 g ai/ha, Flood; 0 to 100 scale where 0 is no effect and 100 is complete control; read-out: Sedge, Umbrella plant response rating
Procedure, shortened: as §2

[13] = 125 g ai/ha, Postemergence, visual injury after approximately 10 d, 0 to 100 scale where 0 is no effect and 100 is complete control
[14] = 500 g ai/ha, postemergence, visual injury, 0 to 100 scale (0 no effect, 100 complete control), approx. 10 d

Compound: CC(C)COc1cccc([C@H]2CN(C)C(=O)[C@@H]2C(=O)Nc2ccccc2F)c1 [Compound 1028]
- pest or weed control at 125 g/ha ([1]; 125 g ai/ha, Preemergence, visual injury rating after approximately 10 d, read-out: Pigweed plant response rating (0 to 100 scale, 0 is no effect, 100 is complete control)): 0%
- pest or weed control at 500 g/ha ([1]; 500 g ai/ha, preemergence, visual injury rating about 10 d after treatment, 0 to 100 scale (0 no effect, 100 complete control), read-out: Pigweed plant response rating): 0%
- pest or weed control at 125 g/ha ([2]; 125 g ai/ha, visual injury on 0 to 100 scale (0 no effect, 100 complete control), read-out: Galium plant response rating): 40%
- pest or weed control at 500 g/ha ([2]; 500 g ai/ha, visual injury, 0 to 100 scale (0 no effect, 100 complete control), read-out: Plant response rating, Galium): 50%
- pest or weed control at 125 g/ha (Kochia (Kochia scoparia); 125 g ai/ha, visual injury on 0 to 100 scale (0 no effect, 100 complete control), read-out: Kochia plant response rating): 0%
- pest or weed control at 500 g/ha (Kochia (Kochia scoparia); 500 g ai/ha, visual injury, 0 to 100 scale (0 no effect, 100 complete control), read-out: Plant response rating, Kochia): 0%
- pest or weed control at 125 g/ha [3, 13]: 80%
- pest or weed control at 500 g/ha [3, 14]: 90%
- pest or weed control at 125 g/ha [4, 13]: 30%
- pest or weed control at 500 g/ha [4, 14]: 40%
- Corn plant response rating (crop injury, 0 = no effect, 100 = complete kill) at 125 g/ha (corn (Zea mays); [13]): 0%
- Corn plant response rating (crop injury, 0 = no effect, 100 = complete kill) at 500 g/ha (corn (Zea mays); [14]): 30%
- pest or weed control at 125 g/ha ([5]; 125 g ai/ha, visual injury on 0 to 100 scale (0 no effect, 100 complete control), read-out: Foxtail, Giant plant response rating): 80%
- pest or weed control at 500 g/ha ([5]; 500 g ai/ha, visual injury, 0 to 100 scale (0 no effect, 100 complete control), read-out: Plant response rating, Foxtail, Giant): 80%
- pest or weed control at 125 g/ha ([6]; 125 g ai/ha, visual injury on 0 to 100 scale (0 no effect, 100 complete control), read-out: Pigweed plant response rating): 0%
- pest or weed control at 500 g/ha ([6]; 500 g ai/ha, visual injury, 0 to 100 scale (0 no effect, 100 complete control), read-out: Plant response rating, Pigweed): 0%
- pest or weed control at 125 g/ha ([7]; 125 g ai/ha, visual injury on 0 to 100 scale (0 no effect, 100 complete control), read-out: Ragweed plant response rating): 0%
- pest or weed control at 500 g/ha ([7]; 500 g ai/ha, visual injury, 0 to 100 scale (0 no effect, 100 complete control), read-out: Plant response rating, Ragweed): 0%
- pest or weed control at 125 g/ha ([8]; 125 g ai/ha, visual injury on 0 to 100 scale (0 no effect, 100 complete control), read-out: Ryegrass, Italian plant response rating): 0%
- pest or weed control at 500 g/ha ([8]; 500 g ai/ha, visual injury, 0 to 100 scale (0 no effect, 100 complete control), read-out: Plant response rating, Ryegrass, Italian): 40%
- plant injury at 125 g/ha ([9]; 125 g ai/ha, visual injury on 0 to 100 scale (0 no effect, 100 complete control), read-out: Wheat plant response rating): 0%
- plant injury at 500 g/ha ([9]; 500 g ai/ha, visual injury, 0 to 100 scale (0 no effect, 100 complete control), read-out: Plant response rating, Wheat): 40%
- pest or weed control at 250 g/ha [10]: 20%
- pest or weed control at 250 g/ha [11]: 80%
- pest or weed control at 250 g/ha (rice (Oryra sativa)): 10%
- pest or weed control at 250 g/ha [12]: 0%
